Active and inactive are the calls of the source. The rule behind the calls is not given here. A value given as a limit tells only on which side of the number the result lay.

The assay concerns the target Chaperone protein DnaK (Escherichia coli (strain K12)) (UniProt P0A6Y8). The experiment in a line: E. coli DnaK SBD ligand binding – biophysical, NMR, chaperone (AID 1033). The settings on record: Purified DnaK SBD.

Chaperone protein DnaK (Escherichia coli (strain K12)), sequence (P0A6Y8 whole entry, looked up): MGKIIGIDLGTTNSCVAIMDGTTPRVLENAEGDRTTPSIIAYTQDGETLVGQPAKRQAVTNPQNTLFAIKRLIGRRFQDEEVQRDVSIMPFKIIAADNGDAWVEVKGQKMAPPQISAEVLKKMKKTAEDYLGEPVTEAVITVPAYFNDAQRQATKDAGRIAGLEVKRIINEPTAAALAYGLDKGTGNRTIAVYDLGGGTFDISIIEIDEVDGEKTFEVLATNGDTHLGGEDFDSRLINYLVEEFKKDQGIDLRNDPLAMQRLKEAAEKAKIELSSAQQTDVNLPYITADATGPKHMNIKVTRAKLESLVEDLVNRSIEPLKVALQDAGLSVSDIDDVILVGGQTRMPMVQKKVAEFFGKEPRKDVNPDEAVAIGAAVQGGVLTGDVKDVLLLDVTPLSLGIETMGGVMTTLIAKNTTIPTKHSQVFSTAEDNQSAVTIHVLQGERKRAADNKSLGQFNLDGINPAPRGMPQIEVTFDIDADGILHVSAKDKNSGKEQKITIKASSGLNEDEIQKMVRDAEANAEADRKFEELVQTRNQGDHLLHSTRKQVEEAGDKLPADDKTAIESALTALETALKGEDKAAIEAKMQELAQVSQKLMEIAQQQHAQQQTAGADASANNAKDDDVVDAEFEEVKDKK

As for `Cc1c(C(=O)NCc2ccccn2)oc2ccccc12`, the Kd (usually the free concentration of one partner at which half of the binding sites on the other are occupied at equilibrium, for simple one-to-one binding) is > 4 mM (inactive). As for `Cn1cc(Cl)c(C(=O)Nc2ccc(F)cc2F)n1`, the Kd was > 4 mM (inactive). On to `O=S(=O)(O)c1nc2ccccc2[nH]1`, for which the Kd is > 4 mM (inactive). Turning to `C/C=C1\[C@H]2C=C(C)C[C@]1(N)c1ccc(=O)[nH]c1C2`, the Kd was > 4 mM (inactive).

For `Cc1ccccc1NC(=O)c1ccccc1`, the Kd entry was “inactive”. `O=C(O)CCS(=O)(=O)c1ccccc1`: the Kd is > 4 mM (inactive). To `COc1cc2c(cc1OC)C1=C(C#N)CCC(=O)N1CC2` belongs > 4 mM (inactive). To `Nc1ccc(NS(=O)(=O)c2ccc(N)cc2)cc1` belongs > 4 mM (inactive); to `CC(=O)N1CCC(NC2CCCCCC2)CC1`, > 4 mM (inactive). For the molecule `NC(C(=O)O)C(O)C(=O)O` (centres undefined), the Kd was > 4 mM (inactive).

In the case of `CC(C)C(C)/C=C/C(C)[C@H]1CCC2C3=CCC4CC(=O)CC[C@]4(C)C3CC[C@@]21C` (some centres undefined), the Kd is > 4 mM (inactive). Turning to `C=CCc1cc(C(=O)N2CCCCC2)ccc1O`, the Kd was > 4 mM (inactive). On to `O=C(O)CC[N+](=O)[O-]`, for which the Kd is > 4 mM (inactive). With `CCOC(=O)c1c(C)nc2ccccn12` the figure was > 4 mM (inactive); with `CC1(O)CC2C(CC1O)C2(C)C` (centres undefined), > 4 mM (inactive). For the molecule `CSc1ccccc1NC(=O)c1ccncc1`, the Kd was > 4 mM (inactive). To `COCCn1c(N)nc2c1c(=O)[nH]c(=O)n2C` belongs > 4 mM (inactive); to `CC1(C)C=CC(=O)[C@@]2(C)C1CC(=O)[C@]1(C)C2CC[C@@]2(C)[C@H](c3ccoc3)OC(=O)C3OC321` (some centres undefined), > 4 mM (inactive). On to `CCN1CC2(C)CC[C@H](OC)[C@]34C2[C@H](O)C2(OCO[C@@]25C[C@H](OC)[C@H]2C[C@]3(O)C5[C@H]2O)C14`, for which the Kd was > 4 mM (inactive). For the molecule `c1ccc(-c2nnc3sc(-c4ccncc4)nn23)cc1`, the Kd was > 4 mM (inactive).

On to `O=C(O)c1cc(=O)c2cccc(O)c2[nH]1`, for which the Kd is > 4 mM (inactive). With `CC(=O)OC[C@@]1(O)C[C@@]23CCC4c5ccoc5CC[C@]4(C)C2CC[C@@H]1C3` (some centres undefined) the figure was > 4 mM (inactive); with `CCOC(=O)c1cnc2sccn2c1=O`, > 4 mM (inactive); with `O=C(O)c1ccc(-n2cccc2)cc1`, > 4 mM (inactive).

Consider `Cc1ccn(S(=O)(=O)c2ccc(C(C)(C)C)cc2)n1`, for which the Kd was > 4 mM (inactive).

Regarding `CC1CCN(S(=O)(=O)N(C)C)CC1`, the Kd was > 4 mM (inactive). Consider `O=C(O)c1ccc(-c2cccs2)cc1`, for which the Kd was > 4 mM (inactive). To `Cc1cc2nc(SCC(=O)O)nc(C)c2cc1C` belongs > 4 mM (inactive); to `CN1CCC(NC(=O)c2c(F)cccc2Cl)CC1`, > 4 mM (inactive). With `COc1ccc(-c2cc(=O)c3c(O)cc(O[C@@H]4O[C@H](CO[C@H]5O[C@H](C)[C@@H](O)[C@H](O)[C@@H]5O)[C@@H](O)[C@H](O)[C@H]4O)cc3o2)cc1O` the figure was > 4 mM (inactive); with `O=c1[nH]c(=S)[nH]c2c1CCC2`, > 4 mM (inactive).

For the molecule `Cc1cc2ncn(S(=O)(=O)N3CCOCC3)c2cc1C`, the Kd was > 4 mM (inactive). Turning to `Nc1cccc(-n2cnnn2)c1`, the Kd is > 4 mM (inactive).

With `Nc1ncnc2c1ncn2CCN1CCOCC1`, the Kd is > 4 mM (inactive).

As for `Cc1nc2ccccc2c(=O)n1CCCn1ccnc1`, the Kd is > 4 mM (inactive).

Turning to `NCC(O)c1ccc(O)cc1` (centres undefined), the Kd is > 4 mM (inactive). On to `Cc1nc(SCC#N)c2c(C)c(C)sc2n1`, for which the Kd is > 4 mM (inactive). Turning to `Nc1nncn1C(=O)c1ccccc1Cl`, the Kd is > 4 mM (inactive). With `Cc1noc(-c2ccccc2)c1C(=O)O` the figure was > 4 mM (inactive); with `COc1ccc(C(=O)CC(=O)O)c2c1C=CC(C)(C)O2`, > 4 mM (inactive); with `COCc1nn2c(N)c(C#N)cnc2c1-c1ccccc1`, > 4 mM (inactive). Regarding `O=c1[nH]c2c(c(=O)n1C1CCCCC1)CCC2`, the Kd was > 4 mM (inactive). Turning to `Cc1nn2c(nc1=O)SCC2(O)c1ccccc1` (centres undefined), the Kd is > 4 mM (inactive). `Cc1ccccc1N1CCN(C(=O)C2CCCCC2)CC1`: the Kd is > 4 mM (inactive).

`Cc1nn(-c2ccccc2)nc1CO`: the Kd was > 4 mM (inactive). Consider `CC(C)=CC1C(CO)C1(C)C` (centres undefined), for which the Kd is > 4 mM (inactive). In the case of `Cc1ccccc1NC(=O)CSc1ccnc(=O)[nH]1`, the Kd is > 4 mM (inactive).

Take `CC(C)(C)c1cc(N)n[nH]1`: the Kd is > 4 mM (inactive). In the case of `CCC1C(=O)OCC1Cc1cncn1C` (centres undefined), the Kd is > 4 mM (inactive). With `Cn1c(=O)n(-c2cccc(Cl)c2)c(=O)n1C` the figure was > 4 mM (inactive); with `O=C(O[C@@H]1Cc2c(O)cc(O)cc2O[C@@H]1c1cc(O)c(O)c(O)c1-c1c([C@H]2Oc3cc(O)cc(O)c3C[C@H]2O)cc(O)c(O)c1O)c1cc(O)c(O)c(O)c1`, > 4 mM (inactive). On to `Nc1ncnc(NCCCO)c1[N+](=O)[O-]`, for which the Kd was > 4 mM (inactive). To `O=C1C=C(O)c2ccccc2C1=O` belongs > 4 mM (inactive); to `COc1cc(OC)c2c(=O)c(O)c(-c3ccc(OC)c(OC)c3)oc2c1`, > 4 mM (inactive). In the case of `CC1=NN(c2ccc(N)cc2)C(=O)C1`, the Kd was > 4 mM (inactive). As to `COc1cc(OC)c(-c2c(OC)cc(OC)cc2OC)c(OC)c1`, the Kd is > 4 mM (inactive).

Consider `CC(=O)O[C@H]1CC[C@@]2(C)C(=CC(=O)C3C4CCC(C(C)CCCC(C)C)[C@@]4(C)CCC32)C1` (some centres undefined), for which the Kd is > 4 mM (inactive).

`C=CCn1c(N)c(C(=O)N2CCOCC2)sc1=S`: the Kd is > 4 mM (inactive). Consider `CNC(=S)Nc1ccc2c(c1)OCO2`, for which the Kd is > 4 mM (inactive). Turning to `CC(=O)OC1CCC23CC1(C)CCC2C(C)(C)CC3OC(C)=O` (centres undefined), the Kd is > 4 mM (inactive).

As for `O=c1cc(CO)oc(CN2CCCCC2)c1O`, the Kd is > 4 mM (inactive).

Turning to `Nc1cccc(S(=O)(=O)N2CCCC2)c1`, the Kd was > 4 mM (inactive). Take `CC(=O)Nc1ccc(S(=O)(=O)NC2=NCCS2)cc1`: the Kd was > 4 mM (inactive). Regarding `c1ccc(-c2noc(-c3ccc4c(c3)OCO4)n2)nc1`, the Kd is > 4 mM (inactive).

With `COCc1cc(C)nc2sc(C(=O)OC)c(N)c12`, the Kd was > 4 mM (inactive). As to `O=C(O)/C=C1\NC(=O)c2ccccc21`, the Kd is > 4 mM (inactive). For the molecule `COc1ccc2[nH]cc(CCN(C)C)c2c1`, the Kd was > 4 mM (inactive). `O=C(Nc1cccc2cccnc12)c1cccnc1`: the Kd was > 4 mM (inactive). In the case of `O=C(Nc1ccc(O)cc1)N1CCOCC1`, the Kd is > 4 mM (inactive). With `Cc1noc(C)c1C(=O)NCc1ccco1` the figure was > 4 mM (inactive); with `O=C(/C=C/c1ccc(O)c(O)c1)O[C@@H]1C[C@](O)(C(=O)O)C[C@@H](O)[C@H]1O`, > 4 mM (inactive); with `Cc1cc(C(=O)Nc2nnc(C(F)(F)F)s2)no1`, > 4 mM (inactive).

For the molecule `Cc1nc2ccccc2c(=O)n1NC(=O)Nc1ccccc1`, the Kd is > 4 mM (inactive).

With `O=C1c2ccccc2C(=O)c2c(O)c(O)cc(O)c21`, the Kd was > 4 mM (inactive). Take `CC(=O)NCc1nc2ccccc2[nH]1`: the Kd is > 4 mM (inactive). Regarding `Cc1occc1C(=O)Nc1ccc2c(c1)CCC2`, the Kd was > 4 mM (inactive). Regarding `COc1cc2c(cc1OC)-c1cc3ccc(OC)c(OC)c3c[n+]1CC2`, the Kd is > 4 mM (inactive). Turning to `Cc1occc1C(=O)Nc1cc(C(C)(C)C)on1`, the Kd is > 4 mM (inactive). Regarding `COc1cc(OC)c2c(=O)c(-c3ccccc3)coc2c1`, the Kd is > 4 mM (inactive). Take `O=C(Nc1ccccc1)NC1CCS(=O)(=O)C1` (centres undefined): the Kd is > 4 mM (inactive).

For `COC1C(O)C(O[C@H]2CC[C@]3(C=O)C4C(CC[C@]3(O)C2)[C@@]2(O)CC[C@H](C3=CC(=O)OC3)[C@@]2(C)C[C@H]4OC(C)=O)OC(C)C1OC(C)=O` (some centres undefined), the Kd was > 4 mM (inactive). To `COC(=O)Nc1c(C)n(C)n(-c2ccccc2)c1=O` belongs > 4 mM (inactive); to `Cc1cc(C)n(CC(=O)O)n1`, > 4 mM (inactive). Regarding `Cc1nn2c(-c3ccncc3)nnc2c2ccccc12`, the Kd was > 4 mM (inactive). For `C=CCc1ccc(OC(=O)c2ccccc2)c(OC)c1`, the Kd was > 4 mM (inactive).

`C=C1C2CC[C@@]3(C)[C@H](c4ccoc4)OC(=O)C[C@]13O[C@H]1CC(=O)C(C)(C)C(CC(=O)OC)C21C` (some centres undefined): the Kd was > 4 mM (inactive).

As to `Cc1nc2nc(-c3ccco3)nn2c(C)c1Cl`, the Kd was > 4 mM (inactive). In the case of `COC(=O)c1cncc(C(=O)OC)c1`, the Kd is > 4 mM (inactive). Consider `COc1ccccc1NC(=O)CCC(=O)O`, for which the Kd was > 4 mM (inactive). To `N#CCN1C(=O)c2ccccc2S1(=O)=O` belongs > 4 mM (inactive); to `COC(=O)C[C@@H]1C2(C)C(=O)[C@@H](CC3=C4CC(=O)O[C@@H](c5ccoc5)[C@]4(C)CCC32)[C@H](OC(C)=O)C1(C)C` (some centres undefined), > 4 mM (inactive); to `Cc1nc2ccccc2c(=O)n1/N=C/c1ccncc1`, > 4 mM (inactive).

For the molecule `Cc1csc(CCc2nc(C)cs2)n1`, the Kd is > 4 mM (inactive). Consider `Cc1noc(C)c1C(=O)N1CCN(c2ncccn2)CC1`, for which the Kd was > 4 mM (inactive). To `Cn1nc(C(=O)N2CCOCC2)c2ccccc2c1=O` belongs > 4 mM (inactive); to `NCCN=C1NS(=O)(=O)c2ccccc21`, > 4 mM (inactive). `O=S(=O)(c1cccc2cccnc12)N1CCOCC1`: the Kd is > 4 mM (inactive). With `CSc1ccccc1NC(=O)c1ccc(C)o1` the figure was > 4 mM (inactive). As to `COC(=O)c1sccc1S(=O)(=O)N1CCCC1`, the Kd was > 4 mM (inactive).

(Values after PubChem BioAssay AID1033 (Sanford-Burnham Center for Chemical Genomics, 2008).)
